Experimental findings from article PMC9249544, “Identification of Flavonoid C-Glycosides as Promising Antidiabetics Targeting Protein Tyrosine Phosphatase 1B” (Journal of Diabetes Research, 2022) are described below.

Each structure is given as a SMILES string.

The experiment has as its target T1, Protein tyrosine phosphatase 1B (PTP1B) (Homo sapiens, UniProt P18031).
T1 construct: gene PTPN1
T1 sequence (P18031 1-435): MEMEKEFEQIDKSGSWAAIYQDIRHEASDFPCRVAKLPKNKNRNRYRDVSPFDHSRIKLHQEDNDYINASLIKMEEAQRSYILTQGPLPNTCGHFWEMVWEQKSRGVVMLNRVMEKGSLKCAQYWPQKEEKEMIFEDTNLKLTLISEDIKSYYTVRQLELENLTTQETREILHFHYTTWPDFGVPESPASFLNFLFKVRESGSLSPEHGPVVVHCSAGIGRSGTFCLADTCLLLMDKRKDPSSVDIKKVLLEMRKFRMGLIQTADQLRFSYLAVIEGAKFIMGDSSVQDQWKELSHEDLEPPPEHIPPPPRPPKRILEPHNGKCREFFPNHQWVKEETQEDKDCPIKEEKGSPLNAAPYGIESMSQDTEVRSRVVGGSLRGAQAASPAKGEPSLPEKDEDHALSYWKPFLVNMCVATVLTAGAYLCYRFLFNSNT
Briefly: p-NPP hydrolysis assay with human recombinant PTP1B ([…] nm); Lineweaver-Burk kinetics. The format is biochemical.

The term IC50 denotes the concentration at which inhibition is half-maximal. Turning to `O=c1cc(-c2ccc(O)c(O)c2)oc2c([C@@H]3O[C@H](CO)[C@@H](O)[C@H](O)[C@H]3O)c(O)cc(O)c12` [orientin], the IC50 was 401 µM.
